In article PMC12410356 (International Journal for Parasitology: Drugs and Drug …, 2025):
Read-outs that look alike come from different tables or passages of the source.

Key:
Format in all cases: cell-based, Echinococcus multilocularis
[1] = test system: E. multilocularis metacestode vesicles; assay: Metacestode vesicle viability assay (ATP, CellTiter-Glo); details: for viability at 10 µM: Echinococcus multilocularis, 288 h
Procedure: Viability was assessed after 12 days using the same metacestode vesicles as for the PGI release assay. Triton X-100 was added to each well to a final concentration of 0.1 %. Subsequently the metacestode vesicles were broken mechanically and 50 μL of the supernatant was mixed with 50 μL of CellTiter-Glo® buffer (Promega, Dübendorf, Switzerland). Measurements were performed on a HIDEX Sense microplate reader.

[2] = test system: E. multilocularis GL cells; assay: Germinal layer cell viability assay (CellTiter-Glo); details: 80 to 0.31 μM, 5 days
Procedure: The isolation of GL cells was conducted according to ([Kaethner et al., 2023]). Briefly, conditioned DMEM (cDMEM) was prepared prior to isolation. For the preparation of cDMEM, 1 × 10^6 RH cells and 10 × 10^6 RH cells incubated in DMEM supplemented with 10 % FBS, penicillin (100 U/mL), streptomycin (100 μg/mL) and tetracycline (5 μg/mL) for six or four days, respectively, at 37 °C under a humid, 5 % CO2 atmosphere. The supernatant of each was mixed 1:1 and sterile filtrated, resulting in cDMEM. Metacestode vesicles of at least 6 months of age were washed with PBS, incubated in distilled H2O for 2.5 min and subsequently mechanically disrupted. The resulting pellet was resuspended in 7 vol of pre-warmed 0.05 % Trypsin/0.02 % EDTA and incubated at 37 °C for 30 min. GL cells were extracted from the laminated layer by vigorous shaking followed by filtration through a 30 μm mesh (Sefar AG, Heiden, Switzerland) and separated from calcareous corpuscles by short centrifugation at 50×g for 30 s at RT. The isolated cells were centrifuged for 10 min at 600×g and RT and the pellet was resuspended in cDMEM. The cell suspension was diluted 1:100 in PBS to measure the OD600. An OD600 value of 0.1 of this dilution was defined as one arbitrary unit (AU) per μL of the undiluted cell suspension corresponding to 0.97 ± 0.11 μg of total protein for the GL cells as measured via Pierce™ bicinchoninic acid (BCA) Protein Assay Kit according to the manufacturer's protocol (Fisher Scientific AG, Reinach, Switzerland). 1′000 AU per 5 mL of cDMEM were cultured at 37 °C overnight under a humid nitrogen atmosphere. The next day, 2′000 AU of GL cells were combined and further cultured for 3 h at 37 °C under a humid nitrogen atmosphere before they were used for further experiments.
To assess effects of compounds on the cell viability of isolated E. multilocularis GL cells, the protocol was applied as previously described ([Kaethner et al., 2023]). In short, 15 AU of GL cells were distributed into each well of a black 384-well plate. Compounds dissolved in DMSO (alexidine, carbendazim, ESI-09, MMV1581545 and oxfendazole) were added to final concentrations ranging from 80 to 0.31 μM (1:2 serial dilution) and the cells were cultured for 5 days at 37 °C under a humid, microaerobic atmosphere (85 % N2, 10 % CO2, 5 % O2). DMSO with the respective concentration was used as a solvent control. Viability was measured using the CellTiter-Glo® kit. Luminescence was measured using a HIDEX Sense microplate reader. Measurements were done in quadruplicates and represented as relative viability of the DMSO controls. IC50 values were calculated in R applying the five parameter logistic model for three independent experiments ([Ritler et al., 2020]).

[3] = test system: E. multilocularis metacestode vesicles; assay: Phosphoglucose isomerase (PGI) release assay (damage-marker release) on metacestode vesicles; details: 10 μM; for PGI d5 (relative PGI release): 5 days; for PGI d12 (relative PGI release): 12 days
[4] = confirmation screen, triplicates, mean
[5] = overview screen, singlets, relative to 0.1 % Triton X-100, DMSO subtracted
[6] = overview screen, 10 μM, singlets, 12 days, relative to DMSO control
[7] = confirmation screen, 10 μM, triplicates, mean, 12 days

Row | SMILES | PGI d5 (relative PGI release) [3, 5] | PGI d12 (relative PGI release) [3, 5] | Viability d12 (relative viability) [1, 6] | other results
1 | COC(=O)Nc1nc2ccccc2[nH]1 [carbendazim] | 6.336% | 74.6935% | – | viability at 10 µM ([1]; read-out: Viability d12 (relative viability), confirmation screen, 10 μM, triplicates, mean, 12 days): 36.4%; viability at 10 µM ([1]; read-out: Viability d12 (relative viability), overview screen, 10 μM, singlets, 12 days, relative to DMSO control): 4.59%; effect on GL cell viability (in words) [2]: did not reduce GL cell viability; effect on GL cell viability (in words) ([2]; listed as Carbendazim): not able to decrease GL cell viability; PGI d5 (relative PGI release) [3, 4]: 5.10%; PGI d12 (relative PGI release) [3, 4]: 24.66%
2 | COc1ccc(NC(=O)c2cc3ccccn3n2)cc1 [MMV374187] | 0.2305% | 3.37% | 96.2395% | –
3 | O=S(=O)(Nc1ccc(O)cc1)c1cccc2cccnc12 [MMV251679] | 0.1251% | -17.8593% | 83.9227% | –
4 | O=C(NO)C1(CS(=O)(=O)c2ccc(Oc3ccc(Cl)cc3)cc2)CCOCC1 [MMV690706] | 0.06885% | -1.025% | 178.089% | –
5 | COc1ccc(NS(=O)(=O)c2ccc(Cl)s2)cn1 [MMV1580499] | 0.09331% | -16.9426% | 78.1001% | –
6 | CCCC1(C2CC2)c2cc(Cl)ccc2NC(=O)N1C (centres unmarked) [MMV1782113] | 0.2859% | 0.236% | 107.305% | –
7 | CC(C)Oc1ccc(-c2nc(-c3cccc4c3CC[C@@H]4NCCO)no2)cc1C#N [MMV1580492] | -0.3732% | -18.7012% | 55.483% | –
8 | Nc1nc(=O)[nH]cc1F [MMV004508] | -1.885% | -20.764% | – | Viability d12 (relative viability) ([1]; 10 µM): 219.514%
9 | Cc1[nH]c2ccccc2c1CCNCc1ccc(/C=C/C(=O)NO)cc1 [MMV010036] | 1.148% | -1.326% | 57.5391% | –
10 | COc1ccc2nc(-c3ccccc3)cc(O)c2c1 [MMV011565] | 5.903% | 49.0323% | 19.5448% | Viability d12 (relative viability) [1, 7]: 78.39%; PGI d5 (relative PGI release) [3, 4]: 0.13%; PGI d12 (relative PGI release) [3, 4]: -0.59%
11 | C[C@@H]1O[C@@H]1P(=O)(O)O [MMV002354] | 4.505% | -11.1824% | 22.2102% | –
12 | Nc1nc(F)nc2c1ncn2[C@@H]1O[C@H](CO)[C@@H](O)[C@@H]1O [MMV637413] | -0.694% | 1.228% | 168.919% | –
13 | COc1ccc(COc2cc3oc(=O)c4cc(C(C)O)ccc4c3cc2OC)cc1 (centres unmarked) [MMV1580799] | -0.002121% | -19.4753% | 164.074% | –
14 | COc1cc(C(C(=O)NC2CCCCC2)N(C(=O)Cc2c[nH]c3ccccc23)c2ccc(C(C)C)cc2)cc(OC)c1OC (centres unmarked) [MMV1593544] | 0.03783% | 0.3627% | 100.386% | –
15 | C/C(=N\NC(=O)C1CC1c1ccccc1)c1ccc(NC(=O)c2ccco2)cc1 (centres unmarked) [MMV1580487] | -1.203% | -0.8271% | 105.695% | –
16 | Cc1ccc(C)c(OCCCCCCN2C[C@H](O)[C@@H](O)[C@H](O)[C@H]2CO)c1 [MMV1634401] | 8.592% | 62.8936% | 26.5643% | Viability d12 (relative viability) [1, 7]: 146.24%; PGI d5 (relative PGI release) [3, 4]: 1.51%; PGI d12 (relative PGI release) [3, 4]: 2.13%
17 | Cc1nc2ccc(Oc3ccccc3)cc2c2c1CCN2CCc1ccccc1 [MMV1634399] | 25.5463% | 44.1623% | 23.583% | Viability d12 (relative viability) [1, 7]: 116.13%; PGI d5 (relative PGI release) [3, 4]: 0.85%; PGI d12 (relative PGI release) [3, 4]: 15.15%
18 | COc1ccccc1NC(=O)c1ccccc1Sc1ccc([N+](=O)[O-])cc1 [MMV1580484] | -0.1612% | 8.961% | 125.738% | –
19 | CNCC(=O)OCc1cccnc1N(C)C(=O)OC(C)[n+]1cnn(C[C@](O)(c2cc(F)ccc2F)[C@@H](C)c2nc(-c3ccc(C#N)cc3)cs2)c1 (some centres unmarked) [MMV1634494] | -2.972% | -24.8266% | 42.7505% | –
20 | C=C(C)[C@@H]1CC[C@]2(C(=O)O)CC[C@]3(C)[C@H](CC[C@@H]4[C@@]5(C)CC[C@H](O)C(C)(C)[C@@H]5CC[C@]43C)[C@@H]12 [MMV638198] | -0.508% | -0.6563% | 121.139% | –
21 | C[C@H]1[C@@H](c2cccc(C(F)(F)F)c2)OC(=O)N1C(=O)NCc1cncc2ccccc12 [MMV1593533] | -2.428% | -25.2459% | 85.501% | –
22 | CCc1nc(N)nc(N)c1C#CCc1ccccc1 [MMV1581549] | -0.3014% | -5.576% | 82.8379% | –
23 | Nc1nc(O)c(Br)c(-c2cccc(Cl)c2)n1 [MMV1645152] | -0.1718% | -17.4315% | 465.171% | –
24 | C[N+]1(C)CCCC(OC(=O)C(O)(c2ccccc2)c2ccccc2)C1 (centres unmarked) [MMV002676] | -4.414% | -4.73% | 80.9524% | –
25 | OC(Cn1cncn1)(Cn1cncn1)c1ccc(F)cc1F [MMV002337] | -1.63% | -24.335% | 76.1493% | –
